{"source": "paper PMC11056381", "about": "“Characterization and evaluation of cytotoxic and antimicrobial activities of cyclotides from Viola japonica” (Scientific Reports, 2024)", "key": {"[1]": {"tested_on": "Acinetobacter baumannii (ATCC19606)", "assay": "microbe, parasite or virus in culture", "conditions": "Acinetobacter baumannii ATCC19606; 10^6 CFU/ml, 96-well plate, overnight 37 °C, visual clarity; performed at least three times", "from_the_text": "(§1) Viba 11, originally discovered in Viola baoshanensis[39] and found in other plants such as Viola tricolor[40], Viola betonicifolia, and Viola philippica, lacks biological activity studies. […] All purified cyclotides underwent antibacterial testing against Gram-positive bacterium Staphylococcus aureus (CMCC(B)26003-2-10) and Bacillus subtilis (CMCC(B)63501), Gram-negative bacteria, including Acinetobacter baumannii (ATCC19606), Escherichia coli (CMCC(B)44102-2-6), and Salmonella paratyphi (CMCC(B)50094-2-9).\n(§2) Bacterial fluids are cultured overnight at 37 °C. The next day, the bacterial liquids are diluted to a concentration of 10^6 CFU/ml. Prepare different concentrations of cyclotide drugs and kanamycin sulfate in advance, and sequentially add the drugs and bacterial liquid to the 96-well plate. Negative controls consisted of sterile water and bacterial liquid. The plate is cultured overnight at 37 °C and observe whether the solution remains clear to see the growth of the bacterial suspension. Each test was performed three times at least."}, "[2]": {"tested_on": "Bacillus subtilis (CMCC(B)63501)", "assay": "microbe, parasite or virus in culture", "conditions": "10^6 CFU/ml, 96-well plate, overnight 37 °C, visual clarity, performed at least three times", "from_the_text": "as §1, §2"}, "[3]": {"tested_on": "Escherichia coli (CMCC(B)44102-2-6)", "assay": "microbe, parasite or virus in culture", "conditions": "10^6 CFU/ml, 96-well plate, overnight 37 °C, visual clarity, performed at least three times", "from_the_text": "as §1, §2"}, "[4]": {"tested_on": "Salmonella paratyphi (CMCC(B)50094-2-9)", "assay": "MIC, broth dilution in 96-well plate", "type": "cell-based", "conditions": "10^6 CFU/ml, overnight 37 °C, visual clarity, performed at least three times", "from_the_text": "(§3) Cycloviolacin O2, known for its antimicrobial, hemolytic, and insecticidal activities, has been more extensively investigated[4],[20],[36]–[38]. Viba 11, originally discovered in Viola baoshanensis[39] and found in other plants such as Viola tricolor[40], Viola betonicifolia, and Viola philippica, lacks biological activity studies. These two cyclotides and vija 10 are high in content and easy to purify, and cycloviolacin O2 can also be used as a positive control to conduct activity study. In addition, few vija12 and 31 were extracted for antibacterial experiments. All purified cyclotides underwent antibacterial testing against Gram-positive bacterium Staphylococcus aureus (CMCC(B)26003-2-10) and Bacillus subtilis (CMCC(B)63501), Gram-negative bacteria, including Acinetobacter baumannii (ATCC19606), Escherichia coli (CMCC(B)44102-2-6), and Salmonella paratyphi (CMCC(B)50094-2-9). […] In addition, the MICs of viba 11, cycloviolacin O2 and vija 10 against B. subtilis were respectively 5.4 μM, 2.1 μM and 14.3 μM (Table 1). […] Therefore, it is hypothesized that the lower antimicrobial activity of vija 10 may be attributed to the presence of only one Lys residue in loop 5.\nas §2"}, "[5]": {"tested_on": "Staphylococcus aureus (CMCC(B)26003-2-10)", "assay": "MIC, broth dilution in 96-well plate", "type": "cell-based", "conditions": "10^6 CFU/ml, overnight 37 °C, visual clarity, performed at least three times", "from_the_text": "as §3, §2"}, "Acinetobacter baumannii": {"tested_on": "Acinetobacter baumannii", "assay": "DAPI/PI staining, laser scanning confocal microscopy (membrane integrity)", "type": "cell-based", "conditions": "A. baumannii 10^8 CFU/mL, 37 °C, 1-2 h, DAPI and PI staining", "from_the_text": "Many naturally occurring antimicrobial peptides (AMPs) are cationic. Cationic AMPs (CAMPs) exert bactericidal activity by mechanisms featuring cell membrane disruption. Cyclotides are likely to kill germ by disrupting their membranes. Laser scanning confocal microscopy can be used to study the ability of cyclotides to destroy bacterial membrane. 4′, 6-diaminyl-2-phenylindole (DAPI) is a blue fluorescent dye that can penetrate membranes and stain both living and dead strains, while propyl iodide (PI) stains only strains with damaged membranes, glowing red[46],[47]. In this study, the bracelet cyclotide family members viba 11 and vija 10 interacted with A. baumannii and B. subtilis in their logarithmic phase at 37 °C for 1–2 h. After the addition of DAPI and PI fluorescent dyes, the samples were incubated in a dark room at room temperature for 15 min for staining. The stained samples were then centrifuged to concentrate, resuspended, and applied to a slide for observation using a confocal laser scanning microscope (FLUOVIEW FV3000, Olympus). […] With increasing concentration, the blue and red fluorescence gradually overlapped. […] However, the magnification is not sufficient to detect further details of membrane disruption. Therefore, further exploration can be conducted using methods such as scanning electron microscopy (SEM) to study the antibacterial mechanism in depth.\nFigure 5 Study on the antimicrobial mechanism of cyclotides. (A) Incubation of Acinetobacter baumannii with sterile water, 1 MIC and 4 MIC of viba 11. (B) Incubation of Bacillus subtilis with sterile water, 1 MIC and 4 MIC of vija 10. All samples were stained with DAPI and PI. The negative control group PI is not stained and the membrane is intact, while the membrane treated with cyclotides was stained and the membrane are destroyed. Scale bar: 20 μm. Magnification: 600×.\nTake 50 μL of A. baumannii and B. subtilis (10^8 CFU/mL), and add 50 μL of sterile water, different concentrations of cyclotides viba 11 and vija 10 to achieve final concentrations of 1 MIC and 4 MIC respectively. Incubate at 37 °C for 1–2 h. Subsequently, add 4,6-diamino-2-phenylindole (DAPI) and propidium iodide (PI) dyes at 20 μg/mL each, and incubate in the dark for 15 min. Centrifuge at 5000 rpm for 3 min to concentrate, discard the majority of the supernatant, and resuspend the bacteria in the remaining small volume of liquid. Mix well and take 10 μL of the stained sample onto a glass slide, gently place a cover slip on top with forceps, avoiding the formation of bubbles during the pressing process. After sealing the cover slip, check with a laser confocal microscope, and the observation was conducted using an objective lens with the maximum magnification of 60 × . […]"}, "[6]": {"tested_on": "4T1 (mouse breast cancer cells)", "assay": "MTT cytotoxicity assay", "type": "cell-based", "conditions": "4T1 cells, 48 h incubation, mean ± SD of at least three repeats", "procedure": "(§4) Five types of cells, namely A549 (human non-small cell lung cancer cells), T24 (human bladder cancer cells), 4T1 (mouse breast cancer cells), 7402 (human hepatocellular carcinoma cells), and THLE-3 (human hepatocytes cells), are selected for evaluating the cytotoxicity of viba 11, cycloviolacin O2, and vija 10 using the MTT (3-(4,5-dimethylthiazol-2-yl)-2,5-diphenyltetrazolium bromide) reagent.\n(§5) To determine cell toxicity using MTT assay, cells are seeded in a 96-well plate and cultured for 24 h. After that, different concentrations of cyclotides are added to the cells and incubated for 48 h. MTT is then added to react with the cells, and after 4 h, the reaction is terminated by discarding the supernatant and adding dimethyl sulfoxide for resuspension. The absorbance at 570 nm is measured after 10 min of shaking at room temperature. Each test was performed three times at least. The data were analyzed using GraphPad Prism 8. During this process, the drug concentrations were transformed into logarithmic form with a base of 10 and plotted on the x-axis. Cell viability (%) = [A (cyclotides) − A (blank)]/[A (control) − A (blank)] × 100, which was represented on the y-axis. Using this method, we determined the IC50 value for each experiment, with each experiment repeated at least three times and the mean value calculated. The error was represented by the standard deviation of the IC50 obtained from three repetitions."}, "[7]": {"tested_on": "7402 (human hepatocellular carcinoma cells)", "assay": "MTT cytotoxicity assay", "type": "cell-based", "conditions": "7402 cells, 48 h incubation, mean ± SD of at least three repeats", "procedure": "as §4, §5"}, "[8]": {"tested_on": "A549 (human non-small cell lung cancer cells)", "assay": "MTT cytotoxicity assay", "type": "cell-based", "conditions": "48 h incubation, mean ± SD of at least three repeats", "procedure": "as §4, §5"}, "[9]": {"tested_on": "T24 (human bladder cancer cells)", "assay": "MTT cytotoxicity assay", "type": "cell-based", "conditions": "48 h incubation, mean ± SD of at least three repeats", "procedure": "as §4, §5"}, "[10]": {"tested_on": "THLE-3 (human hepatocytes cells)", "assay": "MTT cytotoxicity assay", "type": "cell-based", "conditions": "THLE-3 cells, 48 h incubation, mean ± SD of at least three repeats", "procedure": "as §4, §5"}}, "note": "Residues, ends and D or L forms follow the SMILES beside them.", "data": [{"compound": "CC[C@H](C)[C@@H]1NC(=O)[C@H](C)NC(=O)CNC(=O)[C@H](CO)NC(=O)[C@H]([C@@H](C)CC)NC(=O)[C@@H]2CSSC[C@@H]3NC(=O)[C@H](C(C)C)NC(=O)[C@H](CCCCN)NC(=O)[C@H](CO)NC(=O)[C@H](CCCCN)NC(=O)[C@@H]4CSSC[C@H](NC(=O)[C@H](CO)NC(=O)[C@H](CCC(=O)O)NC(=O)CNC(=O)[C@H](CSSC[C@H](NC(=O)CNC1=O)C(=O)N[C@@H](CO)C(=O)N4)NC(=O)[C@@H]1CCCN1C(=O)[C@H]([C@@H](C)CC)NC(=O)CNC(=O)[C@H](CC(N)=O)NC(=O)[C@H](CCCNC(=N)N)NC(=O)[C@H](Cc1ccc(O)cc1)NC3=O)C(=O)N[C@@H](C(C)C)C(=O)N[C@@H](Cc1c[nH]c3ccccc13)C(=O)N[C@@H]([C@@H](C)CC)C(=O)N1CCC[C@H]1C(=O)N2", "note": "[viba 11] (HELM PEPTIDE1{A.I.G.C.S.C.K.S.K.V.C.Y.R.N.G.I.P.C.G.E.S.C.V.W.I.P.C.I.S.G}$PEPTIDE1,PEPTIDE1,4:R3-18:R3|PEPTIDE1,PEPTIDE1,6:R3-22:R3|PEPTIDE1,PEPTIDE1,11:R3-27:R3|PEPTIDE1,PEPTIDE1,1:R1-30:R2$$$V2.0)", "values": [{"measurement": "MIC", "setting": "[1]", "result": 10.8, "unit": "µM"}, {"measurement": "MIC", "setting": "[2]", "result": 5.4, "unit": "µM"}, {"measurement": "MIC", "setting": "[3]", "result": "> 21.6", "unit": "µM"}, {"measurement": "MIC", "setting": "[4]", "result": "> 21.6", "unit": "µM"}, {"measurement": "MIC", "setting": "[5]", "result": "> 21.6", "unit": "µM"}, {"measurement": "membrane integrity (PI red fluorescence)", "setting": "Acinetobacter baumannii; 1 MIC", "result": "caused damage to the membrane integrity"}, {"measurement": "membrane integrity (PI red fluorescence)", "setting": "Acinetobacter baumannii; 4 MIC", "result": "majority of the cell membranes were ruptured"}, {"measurement": "IC50", "setting": "[6]", "result": "285 ± 10", "unit": "nM"}, {"measurement": "IC50", "setting": "[7]", "result": "1700 ± 50", "unit": "nM"}, {"measurement": "IC50", "setting": "[8]", "result": "195 ± 90", "unit": "nM"}, {"measurement": "IC50", "setting": "[9]", "result": "724 ± 170", "unit": "nM"}, {"measurement": "IC50", "setting": "[10]", "result": "1609 ± 10", "unit": "nM"}]}]}
